# Laboratory results reported in US7906655B2, “Hepatitis C virus inhibitors” (Bristol-Myers Squibb Company, priority 2008, dated 2011).
# Test system: HCV 1b genotype
# Assay: HCV Replicon assay (HCV-neo replicon cells, wild-type)
# Format: cell-based
# Conditions: HCV 1b genotype replicon; class symbols
# Method: An HCV Replicon assay was utilized in the present disclosure, and was prepared, conducted and validated as described in commonly owned PCT/US2006/022197 and in O'Boyle et. al. Antimicrob Agents Chemother. 2005 April; 49 (4):1346-53. Assay methods incorporating luciferase reporters have also been used as described (Apath.com).
# HCV-neo replicon cells and replicon cells containing mutations in the NS5A region were used to test the currently described family of compounds. The compounds were determined to have more than 10-fold less inhibitory activity on cells containing mutations than wild-type cells. Thus, the compounds of the present disclosure can be effective in inhibiting the function of the HCV NS5A protein and are understood to be as effective in combinations as previously described in application PCT/US2006/022197 and commonly owned WO/O4014852. Further, the compounds of the present disclosure can be effective against the HCV 1b genotype. It should also be understood that the compounds of the present disclosure can inhibit multiple genotypes of HCV. […] In one embodiment, compounds of the present disclosure are inhibitory versus 1a, 1b, 2a, 2b, 3a, 4a, and 5a genotypes.
row,SMILES,EC50 [nM]
1,"COC(=O)N[C@H](C(=O)N1CCC[C@H]1c1nc2cc(-c3cnc(-c4ccc5[nH]c([C@@H]6CCCN6C(=O)[C@@H](NC(=O)OC)C(C)C)nc5c4)o3)ccc2[nH]1)C(C)C [Example J19, methyl ((1S)-1-(((2S)-2-(5-(2-(2-((2S)-1-((2S)-2-((methoxy-carbonyl)amino)-3-methyl-butanoyl)-2-pyrrolidinyl)-1H-benzimidazol-5-yl)-1,3-oxazol-5-yl)-1H-benzimidazol-2-yl)-1-pyrrolidinyl)carbonyl)-2-methylpropyl) carbamate]",< 4.57

# Same assay, conditions: Hepatitis C virus, HCV 1b genotype replicon; class symbols
row,SMILES,EC50 [nM]
1,"CN(C)[C@@H](C(=O)N1CCC[C@H]1c1nc2cc(-c3cnc(-c4cccc5[nH]c([C@@H]6CCCN6C(=O)[C@@H](c6ccccc6)N(C)C)nc45)o3)ccc2[nH]1)c1ccccc1 [Example J11, (1R)-2-((2S)-2-(4-(5-(2-((2S)-1-((2R)-2-(dimethyl-amino)-2-phenylacetyl)-2-pyrrolidinyl)-1H-benzimidazol-5-yl)-1,3-oxazol-2-yl)-1H-benzimidazol-2-yl)-1-pyrrolidinyl)-N,N-dimethyl-2-oxo-1-phenyl-ethanamine]",< 4.57
2,"CC(=O)N[C@@H](C(=O)N1CCC[C@H]1c1nc2cc(-c3cnc(-c4cccc5[nH]c([C@@H]6CCCN6C(=O)[C@@H](c6ccccc6)N(C)C)nc45)o3)ccc2[nH]1)c1ccccc1 [Example J11.1, N-((1R)-2-((2S)-2-(5-(2-(2-((2S)-1-((2R)-2-(dimethyl-amino)-2-phenylacetyl)-2-pyrrolidinyl)-1H-benzimidazol-4-yl)-1,3-oxazol-5-yl)-1H-benzimidazol-2-yl)-1-pyrrolidinyl)-2-oxo-1-phenylethyl) acetamide]",< 4.57
3,"CC(=O)N[C@H](C(=O)N1CCC[C@H]1c1nc2cc(-c3cnc(-c4cccc5[nH]c([C@@H]6CCCN6C(=O)[C@@H](c6ccccc6)N(C)C)nc45)o3)ccc2[nH]1)c1ccccc1 [Example J11.2, N-((1S)-2-((2S)-2-(5-(2-(2-((2S)-1-((2R)-2-(dimethyl-amino)-2-phenylacetyl)-2-pyrrolidinyl)-1H-benzimidazol-4-yl)-1,3-oxazol-5-yl)-1H-benzimidazol-2-yl)-1-pyrrolidinyl)-2-oxo-1-phenylethyl) acetamide]",< 4.57
4,"CC(=O)N[C@@H](C(=O)N1CCC[C@H]1c1nc2cc(-c3cnc(-c4cccc5[nH]c([C@@H]6CCCN6C(=O)[C@H](NC(C)=O)c6ccccc6)nc45)o3)ccc2[nH]1)c1ccccc1 [Example J12, N-((1R)-2-((2S)-2-(4-(5-(2-((2S)-1-((2R)-2-acetamido-2-phenylacetyl)-2-pyrrolidinyl)-1H-benzimidazol-5-yl)-1,3-oxazol-2-yl)-1H-benzimidazol-2-yl)-1-pyrrolidinyl)-2-oxo-1-phenylethyl) acetamide]",< 4.57
5,"O=C(C(c1ccccc1)N1CCC(O)CC1)N1CCC[C@H]1c1nc2cc(-c3cnc(-c4cccc5[nH]c([C@@H]6CCCN6C(=O)C(c6ccccc6)N6CCC(O)CC6)nc45)o3)ccc2[nH]1 (stereo partly drawn) [Example J13, 1-(2-((2S)-2-(4-(5-(2-((2S)-1-((4-hydroxy-1-piperidinyl) (phenyl)acetyl)-2-pyrrolidinyl)-1H-benzimidazol-5-yl)-1,3-oxazol-2-yl)-1H-benzimidazol-2-yl)-1-pyrrolidinyl)-2-oxo-1-phenylethyl)-4-piperidinol]",< 4.57
6,"CN1CCN([C@@H](C(=O)N2CCC[C@H]2c2nc3cc(-c4cnc(-c5cccc6[nH]c([C@@H]7CCCN7C(=O)[C@@H](c7ccccc7)N7CCN(C)CC7)nc56)o4)ccc3[nH]2)c2ccccc2)CC1 [Example J14, 2-((2S)-1-((2R)-2-(4-methyl-1-piperazinyl)-2-phenylacetyl)-2-pyrrolidinyl)-4-(5-(2-((2S)-1-((2R)-2-(4-methyl-1-piperazinyl)-2-phenylacetyl)-2-pyrrolidinyl)-1H-benzimidazol-5-yl)-1,3-oxazol-2-yl)-1H-benzimidazole]",< 4.57
7,"CN1CCN(C(C(=O)N2CCC[C@H]2c2nc3cc(-c4cnc(-c5cccc6[nH]c([C@@H]7CCCN7C(=O)C(c7ccccc7)N7CCN(C)CC7)nc56)o4)ccc3[nH]2)c2ccccc2)CC1 (stereo partly drawn) [Example J14.1, 2-((2S)-1-((4-methyl-1-piperazinyl) (phenyl)acetyl)-2-pyrrolidinyl)-4-(5-(2-((2S)-1-((4-methyl-1-piperazinyl) (phenyl)acetyl)-2-pyrrolidinyl)-1H-benzimidazol-5-yl)-1,3-oxazol-2-yl)-1H-benzimidazole]",4.57 to 99
8,O=C(Cc1ccccc1)N1CCC[C@H]1c1nc2cc(-c3cnc(-c4ccc5nc([C@@H]6CCCN6C(=O)Cc6ccccc6)[nH]c5c4)o3)ccc2[nH]1 [Example J16],4.57 to 99
9,"O=C([C@H](O)c1ccccc1)N1CCC[C@H]1c1nc2cc(-c3cnc(-c4ccc5nc([C@@H]6CCCN6C(=O)[C@H](O)c6ccccc6)[nH]c5c4)o3)ccc2[nH]1 [Example J17, (1R)-2-((2S)-2-(5-(2-(2-((2S)-1-((2R)-2-hydroxy-2-phenylacetyl)-2-pyrrolidinyl)-1H-benzimidazol-6-yl)-1,3-oxazol-5-yl)-1H-benzimidazol-2-yl)-1-pyrrolidinyl)-2-oxo-1-phenylethanol]",< 4.57
10,"C[C@@](O)(C(=O)N1CCC[C@H]1c1nc2cc(-c3cnc(-c4ccc5nc([C@@H]6CCCN6C(=O)[C@@](C)(O)c6ccccc6)[nH]c5c4)o3)ccc2[nH]1)c1ccccc1 [Example J18, (2S)-1-((2S)-2-(5-(2-(2-((2S)-1-((2S)-2-hydroxy-2-phenyl-propanoyl)-2-pyrrolidinyl)-1H-benzimidazol-6-yl)-1,3-oxazol-5-yl)-1H-benzimidazol-2-yl)-1-pyrrolidinyl)-1-oxo-2-phenyl-2-propanol]",< 4.57
11,"CN(C)[C@@H](C(=O)N1CCC[C@H]1c1nc2cc(-c3cnc(-c4ccc5nc([C@@H]6CCCN6C(=O)[C@@H](c6ccccc6)N(C)C)[nH]c5c4)o3)ccc2[nH]1)c1ccccc1 [Example J20, (1R)-2-((2S)-2-(5-(2-(2-((2S)-1-((2R)-2-(dimethyl-amino)-2-phenylacetyl)-2-pyrrolidinyl)-1H-benzimidazol-6-yl)-1,3-oxazol-5-yl)-1H-benzimidazol-2-yl)-1-pyrrolidinyl)-N,N-dimethyl-2-oxo-1-phenyl-ethanamine]",< 4.57
12,"CC(=O)N[C@@H](C(=O)N1CCC[C@H]1c1nc2cc(-c3cnc(-c4ccc5nc([C@@H]6CCCN6C(=O)[C@H](NC(C)=O)c6ccccc6)[nH]c5c4)o3)ccc2[nH]1)c1ccccc1 [Example J21, N-((1R)-2-((2S)-2-(5-(2-(2-((2S)-1-((2R)-2-acetamido-2-phenylacetyl)-2-pyrrolidinyl)-1H-benzimidazol-6-yl)-1,3-oxazol-5-yl)-1H-benzimidazol-2-yl)-1-pyrrolidinyl)-2-oxo-1-phenylethyl) acetamide]",< 4.57
13,"COc1cccc2c(C(=O)N3CCC[C@H]3c3nc4cc(-c5cnc(-c6ccc7nc([C@@H]8CCCN8C(=O)c8nc(Cl)cc9c(OC)cccc89)[nH]c7c6)o5)ccc4[nH]3)nc(Cl)cc12 [Example J22, 3-chloro-1-(((2S)-2-(5-(2-(2-((2S)-1-((3-chloro-5-methoxy-1-isoquinolinyl)carbonyl)-2-pyrrolidinyl)-1H-benzimidazol-6-yl)-1,3-oxazol-5-yl)-1H-benzimidazol-2-yl)-1-pyrrolidinyl)carbonyl)-5-methoxy-isoquinoline]",1000 to 10000
14,"CN(C)[C@@H](C(=O)N1CCC[C@H]1c1nc2cc(-c3cnc(-c4ccc5nc([C@@H]6C[C@@H]7C[C@@H]7N6C(=O)[C@@H](c6ccccc6)N(C)C)[nH]c5c4)o3)ccc2[nH]1)c1ccccc1 [Example J23, (1R)-2-((2S)-2-(5-(2-(2-((1S,3S,5S)-2-((2R)-2-(dimethyl-amino)-2-phenylacetyl)-2-azabicyclo[3. 1.0]hex-3-yl)-1H-benzimidazol-5-yl)-1,3-oxazol-5-yl)-1H-benzimidazol-2-yl)-1-pyrrolidinyl)-N,N-dimethyl-2-oxo-1-phenyl-ethanamine]",< 4.57
15,"CC(=O)N[C@@H](C(=O)N1CCC[C@H]1c1nc2cc(-c3cnc(-c4ccc5nc([C@@H]6C[C@@H]7C[C@@H]7N6C(=O)[C@H](NC(C)=O)c6ccccc6)[nH]c5c4)o3)ccc2[nH]1)c1ccccc1 [Example J24, N-((1R)-2-((2S)-2-(5-(2-(2-((1S,3S,5S)-2-((2R)-2-acetamido-2-phenylacetyl)-2-azabicyclo[3. 1.0]hex-3-yl)-1H-benzimidazol-5-yl)-1,3-oxazol-5-yl)-1H-benzimidazol-2-yl)-1-pyrrolidinyl)-2-oxo-1-phenylethyl) acetamide]",< 4.57

# Same assay, conditions: Hepatitis C virus, HCV 1b genotype replicon; numeric values
row,SMILES,EC50 [nM]
1,"COC(=O)N[C@H](C(=O)N1CCC[C@H]1c1nc2cc(-c3cnc(-c4cccc5[nH]c([C@@H]6CCCN6C(=O)[C@@H](NC(=O)OC)C(C)C)nc45)o3)ccc2[nH]1)C(C)C [Example J10, methyl ((1S)-1-(((2S)-2-(4-(5-(2-((2S)-1-((2S)-2-(methoxy-carbonyl)amino)-3-methyl-butanoyl)-2-pyrrolidinyl)-1H-benzimidazol-5-yl)-1,3-oxazol-2-yl)-1H-benzimidazol-2-yl)-1-pyrrolidinyl)carbonyl)-2-methylpropyl) carbamate]",0.007
2,"COc1cccc2c(C(=O)N3CCC[C@H]3c3nc4cc(-c5cnc(-c6cccc7[nH]c([C@@H]8CCCN8C(=O)c8nc(Cl)cc9c(OC)cccc89)nc67)o5)ccc4[nH]3)nc(Cl)cc12 [Example J15, 3-chloro-1-(((2S)-2-(4-(5-(2-((2S)-1-((3-chloro-5-methoxy-1-isoquinolinyl)carbonyl)-2-pyrrolidinyl)-1H-benzimidazol-5-yl)-1,3-oxazol-2-yl)-1H-benzimidazol-2-yl)-1-pyrrolidinyl)carbonyl)-5-methoxy-isoquinoline]",> 10000
